Values joined by “and” are separate entries in the source; they are usually repeats but may differ in a detail not shown here. Equal values may be shown once.
Key:
[1] = biological target: Gamma-aminobutyric acid receptor subunit alpha-1 (Rattus norvegicus, UniProt P62813)
[2] = biological target: T1, Muscarinic acetylcholine receptor M1 (Homo sapiens, UniProt P11229); format: functional
T1 sequence (P11229 whole entry): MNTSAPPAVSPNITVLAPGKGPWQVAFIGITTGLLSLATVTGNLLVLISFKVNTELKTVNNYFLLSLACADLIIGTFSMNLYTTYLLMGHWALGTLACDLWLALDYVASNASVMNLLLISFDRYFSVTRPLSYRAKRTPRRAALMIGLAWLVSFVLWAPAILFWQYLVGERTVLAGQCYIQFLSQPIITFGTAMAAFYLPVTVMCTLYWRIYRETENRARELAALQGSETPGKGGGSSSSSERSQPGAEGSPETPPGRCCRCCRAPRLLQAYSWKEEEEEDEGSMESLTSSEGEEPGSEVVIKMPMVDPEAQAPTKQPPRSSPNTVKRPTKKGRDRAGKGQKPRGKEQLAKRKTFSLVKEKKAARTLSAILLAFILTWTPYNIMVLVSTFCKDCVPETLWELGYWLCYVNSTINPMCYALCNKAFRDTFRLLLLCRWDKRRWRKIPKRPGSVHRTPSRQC

[3] = biological target: T2, 5-hydroxytryptamine receptor 2A (Homo sapiens, UniProt P28223); format: functional, cell-based
T2 sequence (P28223 whole entry): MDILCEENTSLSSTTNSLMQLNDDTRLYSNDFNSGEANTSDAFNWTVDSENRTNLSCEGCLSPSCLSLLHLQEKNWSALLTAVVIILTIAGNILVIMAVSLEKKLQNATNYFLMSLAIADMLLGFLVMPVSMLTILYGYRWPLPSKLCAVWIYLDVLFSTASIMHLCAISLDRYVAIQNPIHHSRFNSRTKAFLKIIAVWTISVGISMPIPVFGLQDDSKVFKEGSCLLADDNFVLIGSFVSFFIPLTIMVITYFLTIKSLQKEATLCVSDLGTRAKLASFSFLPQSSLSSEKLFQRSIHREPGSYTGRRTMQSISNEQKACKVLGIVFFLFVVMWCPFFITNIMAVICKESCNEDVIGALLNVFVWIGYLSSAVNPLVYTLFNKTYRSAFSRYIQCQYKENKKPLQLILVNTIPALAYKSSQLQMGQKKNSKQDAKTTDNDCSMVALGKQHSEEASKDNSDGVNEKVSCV

[4] = biological target: Muscarinic acetylcholine receptor M3 (Homo sapiens, UniProt P20309)
Muscarinic acetylcholine receptor M3, sequence (P20309 whole entry): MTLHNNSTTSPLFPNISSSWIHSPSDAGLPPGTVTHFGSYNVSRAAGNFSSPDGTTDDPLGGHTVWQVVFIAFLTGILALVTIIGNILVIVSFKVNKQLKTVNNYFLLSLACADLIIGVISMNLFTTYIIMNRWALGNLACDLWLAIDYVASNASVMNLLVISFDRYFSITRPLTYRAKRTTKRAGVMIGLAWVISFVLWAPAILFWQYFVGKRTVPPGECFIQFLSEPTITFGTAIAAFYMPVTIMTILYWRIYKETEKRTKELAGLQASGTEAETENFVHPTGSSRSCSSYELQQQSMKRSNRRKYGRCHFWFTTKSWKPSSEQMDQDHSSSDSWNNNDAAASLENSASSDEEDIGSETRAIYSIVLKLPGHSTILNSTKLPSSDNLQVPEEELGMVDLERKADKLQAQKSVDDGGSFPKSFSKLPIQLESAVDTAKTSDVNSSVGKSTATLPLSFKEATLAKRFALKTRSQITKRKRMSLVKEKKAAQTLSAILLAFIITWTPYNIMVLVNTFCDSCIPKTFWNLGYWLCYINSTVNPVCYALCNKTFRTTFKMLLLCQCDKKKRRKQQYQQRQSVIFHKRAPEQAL

[5] = biological target: T2, 5-hydroxytryptamine receptor 2A; format: functional, cell-based; remark: listed apart in the source
[6] = biological target: 5-hydroxytryptamine receptor 2B (Homo sapiens, UniProt P41595); format: functional, cell-based
5-hydroxytryptamine receptor 2B, sequence (P41595 whole entry): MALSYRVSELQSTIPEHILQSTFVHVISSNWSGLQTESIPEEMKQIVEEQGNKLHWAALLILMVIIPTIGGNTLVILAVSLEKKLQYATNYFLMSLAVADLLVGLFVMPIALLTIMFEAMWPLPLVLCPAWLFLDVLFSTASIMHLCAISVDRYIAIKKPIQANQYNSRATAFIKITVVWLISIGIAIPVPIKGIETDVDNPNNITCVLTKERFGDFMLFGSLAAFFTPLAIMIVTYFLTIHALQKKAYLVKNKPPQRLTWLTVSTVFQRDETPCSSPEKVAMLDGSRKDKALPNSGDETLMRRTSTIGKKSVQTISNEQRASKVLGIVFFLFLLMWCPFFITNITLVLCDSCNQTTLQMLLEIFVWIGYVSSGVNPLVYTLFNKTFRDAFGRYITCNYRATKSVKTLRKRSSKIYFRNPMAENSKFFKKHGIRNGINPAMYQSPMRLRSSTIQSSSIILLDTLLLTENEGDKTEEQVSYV

[7] = biological target: Beta-1 adrenergic receptor (Homo sapiens, UniProt P08588); format: functional
Beta-1 adrenergic receptor, sequence (P08588 whole entry): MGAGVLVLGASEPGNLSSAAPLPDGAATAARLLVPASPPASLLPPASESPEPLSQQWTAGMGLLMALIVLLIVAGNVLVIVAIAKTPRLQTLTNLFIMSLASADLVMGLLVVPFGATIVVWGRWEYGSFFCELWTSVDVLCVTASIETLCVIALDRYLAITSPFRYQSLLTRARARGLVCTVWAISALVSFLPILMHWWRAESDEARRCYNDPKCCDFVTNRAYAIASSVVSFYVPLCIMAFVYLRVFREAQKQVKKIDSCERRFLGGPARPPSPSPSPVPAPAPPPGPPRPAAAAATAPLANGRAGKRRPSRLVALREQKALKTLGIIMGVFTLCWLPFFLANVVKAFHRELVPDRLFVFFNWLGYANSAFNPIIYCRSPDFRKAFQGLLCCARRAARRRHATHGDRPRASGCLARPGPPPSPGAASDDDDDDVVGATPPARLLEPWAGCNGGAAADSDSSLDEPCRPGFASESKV

Histamine H3 receptor = Histamine H3 receptor (Homo sapiens, UniProt Q9Y5N1)
Histamine H3 receptor, sequence (Q9Y5N1 whole entry): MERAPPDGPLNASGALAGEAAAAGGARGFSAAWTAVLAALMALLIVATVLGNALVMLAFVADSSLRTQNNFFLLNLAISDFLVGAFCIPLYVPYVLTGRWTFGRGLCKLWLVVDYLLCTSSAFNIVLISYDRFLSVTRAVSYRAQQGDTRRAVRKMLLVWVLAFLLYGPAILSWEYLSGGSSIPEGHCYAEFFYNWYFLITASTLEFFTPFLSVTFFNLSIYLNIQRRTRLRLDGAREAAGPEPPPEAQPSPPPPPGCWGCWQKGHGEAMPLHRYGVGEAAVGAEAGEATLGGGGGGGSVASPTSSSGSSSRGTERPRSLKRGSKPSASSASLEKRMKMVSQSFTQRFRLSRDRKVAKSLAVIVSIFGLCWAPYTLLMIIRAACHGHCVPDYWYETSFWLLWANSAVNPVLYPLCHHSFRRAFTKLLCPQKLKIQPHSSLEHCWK

Histamine H1 receptor = Histamine H1 receptor (Homo sapiens, UniProt P35367)
Histamine H1 receptor, sequence (P35367 whole entry): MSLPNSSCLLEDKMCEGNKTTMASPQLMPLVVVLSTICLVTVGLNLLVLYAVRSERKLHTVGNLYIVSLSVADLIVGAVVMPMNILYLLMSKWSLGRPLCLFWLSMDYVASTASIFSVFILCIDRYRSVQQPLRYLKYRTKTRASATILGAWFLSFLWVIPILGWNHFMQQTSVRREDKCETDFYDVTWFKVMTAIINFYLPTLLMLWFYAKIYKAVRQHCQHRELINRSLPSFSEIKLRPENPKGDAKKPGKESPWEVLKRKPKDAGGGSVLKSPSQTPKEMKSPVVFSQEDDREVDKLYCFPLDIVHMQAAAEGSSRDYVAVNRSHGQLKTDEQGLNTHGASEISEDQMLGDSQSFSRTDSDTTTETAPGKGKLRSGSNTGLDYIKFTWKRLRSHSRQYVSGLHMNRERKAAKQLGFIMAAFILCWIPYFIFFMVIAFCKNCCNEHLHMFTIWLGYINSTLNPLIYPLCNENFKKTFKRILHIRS

Cannabinoid receptor 1 = Cannabinoid receptor 1 (Homo sapiens, UniProt P21554)
Cannabinoid receptor 1, sequence (P21554 whole entry): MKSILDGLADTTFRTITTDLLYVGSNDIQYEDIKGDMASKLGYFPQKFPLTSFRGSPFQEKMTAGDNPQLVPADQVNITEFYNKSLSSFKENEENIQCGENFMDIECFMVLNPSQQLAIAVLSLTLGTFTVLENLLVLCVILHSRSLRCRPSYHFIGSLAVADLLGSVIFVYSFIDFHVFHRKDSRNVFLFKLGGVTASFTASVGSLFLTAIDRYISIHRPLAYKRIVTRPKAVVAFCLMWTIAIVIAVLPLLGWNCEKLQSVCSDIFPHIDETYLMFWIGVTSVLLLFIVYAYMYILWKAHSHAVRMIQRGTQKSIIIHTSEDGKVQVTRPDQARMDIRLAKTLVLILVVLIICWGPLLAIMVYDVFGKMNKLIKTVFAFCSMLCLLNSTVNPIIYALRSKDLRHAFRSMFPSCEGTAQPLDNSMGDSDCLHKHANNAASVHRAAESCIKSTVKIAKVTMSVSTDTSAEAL

Mu-type opioid receptor = Mu-type opioid receptor (Homo sapiens, UniProt P35372); assay: biochemical; format: functional
Mu-type opioid receptor, sequence (P35372 whole entry): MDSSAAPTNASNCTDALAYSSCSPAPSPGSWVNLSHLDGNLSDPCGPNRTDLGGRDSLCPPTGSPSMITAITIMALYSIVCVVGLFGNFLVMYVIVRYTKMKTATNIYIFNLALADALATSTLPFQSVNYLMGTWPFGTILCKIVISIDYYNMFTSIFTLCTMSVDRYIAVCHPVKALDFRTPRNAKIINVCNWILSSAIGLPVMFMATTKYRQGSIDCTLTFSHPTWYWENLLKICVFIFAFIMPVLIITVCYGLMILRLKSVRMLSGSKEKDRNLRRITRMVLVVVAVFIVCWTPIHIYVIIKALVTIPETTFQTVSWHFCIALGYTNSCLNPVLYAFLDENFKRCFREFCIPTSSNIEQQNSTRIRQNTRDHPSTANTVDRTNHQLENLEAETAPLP

[8] = biological target: T3, Alpha-1A adrenergic receptor (Homo sapiens, UniProt P35348); format: functional, cell-based
T3 sequence (P35348 whole entry): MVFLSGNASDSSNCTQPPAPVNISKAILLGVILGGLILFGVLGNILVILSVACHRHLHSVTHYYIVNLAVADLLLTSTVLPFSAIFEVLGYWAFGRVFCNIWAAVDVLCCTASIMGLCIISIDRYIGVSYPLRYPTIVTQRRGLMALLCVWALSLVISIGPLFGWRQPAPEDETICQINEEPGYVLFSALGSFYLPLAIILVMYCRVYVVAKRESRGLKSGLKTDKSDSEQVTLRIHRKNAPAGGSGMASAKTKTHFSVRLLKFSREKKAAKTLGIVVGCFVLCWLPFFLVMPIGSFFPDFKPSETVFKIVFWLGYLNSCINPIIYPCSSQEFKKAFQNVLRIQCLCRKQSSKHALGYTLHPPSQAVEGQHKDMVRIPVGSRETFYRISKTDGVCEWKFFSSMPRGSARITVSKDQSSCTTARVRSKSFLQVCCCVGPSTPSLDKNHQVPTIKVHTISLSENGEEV

[9] = biological target: Beta-2 adrenergic receptor (Homo sapiens, UniProt P07550); format: functional, cell-based
Beta-2 adrenergic receptor, sequence (P07550 whole entry): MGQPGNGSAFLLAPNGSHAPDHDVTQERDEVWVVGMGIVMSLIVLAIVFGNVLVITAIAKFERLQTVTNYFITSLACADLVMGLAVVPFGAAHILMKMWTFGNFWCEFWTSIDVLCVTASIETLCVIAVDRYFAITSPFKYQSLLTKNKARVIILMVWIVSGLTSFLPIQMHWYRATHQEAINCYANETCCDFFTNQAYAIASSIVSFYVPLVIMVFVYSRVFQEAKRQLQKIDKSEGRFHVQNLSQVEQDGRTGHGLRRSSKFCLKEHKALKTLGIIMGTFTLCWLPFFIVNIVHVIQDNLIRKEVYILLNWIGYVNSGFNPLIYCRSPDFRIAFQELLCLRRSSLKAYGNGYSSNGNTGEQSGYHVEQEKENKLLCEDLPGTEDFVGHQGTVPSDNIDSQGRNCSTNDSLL

[10] = biological target: cGMP-inhibited 3',5'-cyclic phosphodiesterase 3A (Homo sapiens, UniProt Q14432); format: functional
D(3) dopamine receptor = D(3) dopamine receptor (Homo sapiens, UniProt P35462)
[11] = biological target: T4, Alpha-2A adrenergic receptor (Homo sapiens, UniProt P08913)
T4 sequence (P08913 whole entry): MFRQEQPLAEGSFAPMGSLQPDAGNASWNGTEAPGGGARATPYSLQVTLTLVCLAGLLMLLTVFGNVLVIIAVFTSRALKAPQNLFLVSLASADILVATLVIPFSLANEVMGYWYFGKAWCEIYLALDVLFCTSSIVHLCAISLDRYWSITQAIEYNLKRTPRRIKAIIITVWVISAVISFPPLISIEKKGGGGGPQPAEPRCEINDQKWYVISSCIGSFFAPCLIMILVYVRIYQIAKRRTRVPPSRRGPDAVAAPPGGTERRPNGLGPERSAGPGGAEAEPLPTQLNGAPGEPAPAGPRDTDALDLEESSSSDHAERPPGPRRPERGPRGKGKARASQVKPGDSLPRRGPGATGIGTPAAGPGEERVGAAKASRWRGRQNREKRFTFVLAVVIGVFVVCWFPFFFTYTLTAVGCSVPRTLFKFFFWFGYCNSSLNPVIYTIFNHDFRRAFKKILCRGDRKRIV

D(1A) dopamine receptor = D(1A) dopamine receptor (Homo sapiens, UniProt P21728)
[12] = biological target: Sodium-dependent dopamine transporter (Homo sapiens, UniProt Q01959)
Thromboxane A2 receptor [13] = biological target: T5, Thromboxane A2 receptor (Homo sapiens, UniProt P21731); format: functional, cell-based
T5 sequence (P21731 whole entry): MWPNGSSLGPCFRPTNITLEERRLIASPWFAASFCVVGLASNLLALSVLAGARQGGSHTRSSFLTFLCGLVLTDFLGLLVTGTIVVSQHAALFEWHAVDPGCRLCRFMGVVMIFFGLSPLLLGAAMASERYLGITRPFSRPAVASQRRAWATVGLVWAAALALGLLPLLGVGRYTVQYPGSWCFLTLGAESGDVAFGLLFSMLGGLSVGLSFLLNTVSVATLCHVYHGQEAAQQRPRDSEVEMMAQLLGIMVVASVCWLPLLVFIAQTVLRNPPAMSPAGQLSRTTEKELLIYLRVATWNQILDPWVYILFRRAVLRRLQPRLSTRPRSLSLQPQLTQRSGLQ

Thromboxane A2 receptor [14] = biological target: T5, Thromboxane A2 receptor; format: functional, cell-based; remark: listed apart in the source
Also: assay procedure not described here.

Gamma-aminobutyric acid receptor subunit alpha-1, sequence (P62813 whole entry): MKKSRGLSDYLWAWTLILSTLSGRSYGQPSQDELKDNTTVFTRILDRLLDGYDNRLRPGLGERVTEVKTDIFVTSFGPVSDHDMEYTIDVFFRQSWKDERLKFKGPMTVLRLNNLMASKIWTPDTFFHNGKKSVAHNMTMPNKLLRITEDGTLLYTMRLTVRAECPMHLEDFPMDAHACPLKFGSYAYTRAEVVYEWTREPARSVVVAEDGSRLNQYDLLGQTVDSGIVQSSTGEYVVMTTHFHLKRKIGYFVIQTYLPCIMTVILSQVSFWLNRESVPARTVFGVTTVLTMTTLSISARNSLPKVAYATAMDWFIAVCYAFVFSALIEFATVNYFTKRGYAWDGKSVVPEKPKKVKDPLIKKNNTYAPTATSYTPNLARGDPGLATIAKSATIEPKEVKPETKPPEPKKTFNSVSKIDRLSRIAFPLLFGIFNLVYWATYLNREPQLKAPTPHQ

Row | Compound | AC50 [1] | AC50 [2] | AC50 [3] | AC50 [4] | AC50 [5] | AC50 [6] | AC50 [7] | AC50 (Histamine H3 receptor) | AC50 (Histamine H1 receptor) | AC50 (Cannabinoid receptor 1) | AC50 (Mu-type opioid receptor) | AC50 [8] | AC50 [9] | AC50 [10] | AC50 (D(3) dopamine receptor) | AC50 [11] | AC50 (D(1A) dopamine receptor) | AC50 [12] | AC50 (Thromboxane A2 receptor [13]) | AC50 (Thromboxane A2 receptor [14])
1 | C=CCNc1nc(NCC=C)nc(N2CCN(C(c3ccc(F)cc3)c3ccc(F)cc3)CC2)n1 [ALMITRINE] | > 30 µM | > 30 µM | > 30 µM | > 30 µM | > 30 µM | > 30 µM | > 30 µM | > 30 µM | > 30 µM | > 30 µM | > 30 µM | – | – | – | – | – | – | – | – | –
2 | CC(C)COCC(CN(Cc1ccccc1)c1ccccc1)N1CCCC1 (centres undefined) [BEPRIDIL] | – | 23 µM | 22 µM | 17 µM | > 30 µM | 28 µM | – | > 30 µM | 8.6 µM | 10 µM | 17 µM | – | – | – | – | – | – | – | – | –
3 | C/N=C(\NC)NCc1ccccc1 [BETHANIDINE] | – | > 30 µM | > 30 µM | > 30 µM | > 30 µM | > 30 µM | – | > 30 µM | > 30 µM | – | > 30 µM | > 30 µM | > 30 µM | – | – | – | – | – | – | –
4 | CCC(C)C1(CC)C(=O)NC(=O)NC1=O (centres undefined) [BUTABARBITAL] | – | > 30 µM | > 30 µM | – | > 30 µM | > 30 µM | > 30 µM | > 30 µM | > 30 µM | – | > 30 µM | > 30 µM | > 30 µM | – | – | – | – | – | – | –
5 | CC1OC2(CS1)CN1CCC2CC1 (centres undefined) [CEVIMELINE] | > 10 µM | > 30 µM | > 10 µM | > 30 µM | > 10 µM | > 10 µM | > 10 µM | – | > 30 µM | > 10 µM | > 30 µM | > 30 µM | – | – | – | – | – | – | – | –
6 | Nc1ncn([C@H]2C[C@H](O)[C@@H](CO)O2)c(=O)n1 [DECITABINE] | > 30 µM | > 30 µM | > 30 µM | > 30 µM | > 30 µM | > 30 µM | 19.1 µM | > 30 µM | > 30 µM | > 30 µM | > 30 µM | – | – | – | – | – | – | – | – | –
7 | CC(C)(C)C(=O)OCC(=O)[C@H]1CC[C@H]2[C@@H]3CCC4=CC(=O)CC[C@]4(C)[C@H]3CC[C@]12C [DESOXYCORTICOSTERONE PIVALATE] | > 10 µM | > 10 µM | > 10 µM | > 30 µM | > 10 µM | > 10 µM | > 10 µM | > 10 µM | > 10 µM | > 10 µM | – | > 30 µM | – | – | – | – | – | – | – | –
8 | C[C@]12CCC(=O)C(O)=C1CC[C@@H]1[C@@H]2CC[C@]2(C)C(=O)CC[C@@H]12 [FORMESTANE] | > 30 µM | > 30 µM | > 30 µM | > 30 µM | > 30 µM | > 30 µM | > 30 µM | > 30 µM | > 30 µM | – | > 30 µM | > 30 µM | – | – | – | – | – | – | – | –
9 | CCC1(c2ccccc2)CCC(=O)NC1=O (centres undefined) [GLUTETHIMIDE] | > 10 µM | > 10 µM | > 30 µM | > 30 µM | > 30 µM | > 10 µM | > 10 µM | > 10 µM | > 10 µM | > 10 µM | – | > 30 µM | – | – | – | – | – | – | – | –
10 | C[C@H](Cc1ccc(O)c(O)c1)[C@@H](C)Cc1ccc(O)c(O)c1 [MASOPROCOL] | > 10 µM | > 10 µM and 29 µM and > 30 µM | 13 µM and > 30 µM and 21 µM | > 30 µM | > 30 µM | 11 µM | > 30 µM | > 10 µM | > 30 µM | 23.9 µM | – | 8.4 µM and > 30 µM (2×) | – | – | – | – | – | – | – | –
11 | O=[N+]([O-])c1ccc(O)c2ncccc12 [NITROXOLINE] | > 30 µM | 8.5 µM | > 30 µM | 7.6 µM | > 30 µM | > 30 µM | – | – | 4.9 µM | – | – | > 30 µM | > 30 µM | > 30 µM | 20.4 µM | > 30 µM | > 30 µM | > 30 µM | > 30 µM | > 30 µM
12 | Clc1ccc2c(N3CCN(CCCN4CCN(c5ccnc6cc(Cl)ccc56)CC4)CC3)ccnc2c1 [PIPERAQUINE] | > 30 µM | 3.8 µM | > 30 µM | > 30 µM | > 30 µM | > 30 µM | > 30 µM | 6.1 µM | > 30 µM | – | > 30 µM | > 30 µM | – | – | – | – | – | – | – | –
13 | Clc1ccc(C(Cn2ccnc2)OCc2ccsc2Cl)c(Cl)c1 (centres undefined) [TIOCONAZOLE] | > 30 µM | > 30 µM | 19 µM | 26 µM | > 30 µM | > 30 µM | 24.3 µM | > 30 µM | > 30 µM | > 30 µM | > 30 µM | 3.2 µM | – | – | – | – | – | – | – | –
14 | Cc1cccc(N2CC(CO)OC2=O)c1 (centres undefined) [TOLOXATONE] | > 30 µM | > 30 µM | > 30 µM | > 30 µM | > 30 µM | > 30 µM | > 30 µM | > 30 µM | > 30 µM | – | > 30 µM | > 30 µM | – | – | – | – | – | – | – | –
15 | CC(C)[C@H](N)C(=O)OCC(CO)OCn1cnc2c(=O)nc(N)[nH]c21 (some centres undefined) [VALGANCICLOVIR] | > 30 µM | > 30 µM | > 30 µM | > 30 µM | > 30 µM | > 30 µM | > 30 µM | > 30 µM | > 30 µM | > 30 µM | > 30 µM | – | – | – | – | – | – | – | – | –
16 | CCC(C)C(CC)C(N)=O (centres undefined) [VALNOCTAMIDE] | > 30 µM | > 30 µM | > 30 µM | > 30 µM | > 30 µM | – | > 30 µM | > 30 µM | > 30 µM | – | > 30 µM | > 30 µM | > 30 µM | – | – | – | – | – | – | –
17 | CCOC(=O)C1=C[C@]2(CC)CCCN3CCc4c(n1c1ccccc41)[C@@H]32 [VINPOCETINE] | > 30 µM | > 30 µM | > 30 µM | > 30 µM | > 30 µM | – | > 30 µM | 18 µM | > 30 µM | – | > 30 µM | > 30 µM | > 30 µM | – | – | – | – | – | – | –

— ChEMBL document CHEMBL5291721, “A preclinical secondary pharmacology resource illuminates target-adverse drug reaction associations of marketed drugs” (Nat Commun, 2023)
